Results: US20240336611A1 (Insilico Medicine IP Limited, priority 2021, published 2024)

Legend:
[1] = Metabolic stability in human liver microsomes; format: in vitro ADME; conditions: LM Clint (intrinsic clearance); 1 μM test compound, 0.5 mg protein/mL microsome, 37° C., up to 60 min
Description: 2.1. Test Compound and Control Working Solution Preparation: Working solution: 5 µL of compound and control stock solution (10 mM in dimethyl sulfoxide (DMSO)) were diluted with 495 μL of acetonitrile (ACN) (intermediate solution concentration: 100 μM, 99% ACN).
2.2.1. […] 2.2.2. Preparation Procedure: The appropriate amount of NADPH powder were weighed and diluted into a 10 mM MgCl2 solution (working solution concentration: 10 unit/mL; final concentration in reaction system: 1 unit/mL).
2.3.2. Preparation Procedure: The appropriate concentrations of microsome working solutions were prepared in 100 mM potassium phosphate buffer. 2.4. Stop Solution Preparation: Cold (4° C.) acetonitrile (ACN) containing 200 ng/mL tolbutamide and 200 ng/mL labetalol as internal standards (IS) were used as the stop solution.
2.5.1. Pre-warm empty ‘Incubation’ plates T60 and NCF60 for 10 min minutes. 2.5.2. Liver microsomes were diluted to 0.56 mg/mL in 100 mM phosphate buffer. 2.5.3. 445 uL microsome working solutions (0.56 mg/mL) were transferred into pre-warmed ‘Incubation’ plates T60 and NCF60. Then ‘Incubation’ plates T60 and NCF60 were pre-incubated for 10 min at 37° C. with constant shaking. 54 μL liver microsomes were transferred to blank plate, then 6 μL NAPDH cofactor were added to the blank plate, and then 180 μL quenching solution can be added to blank plate. 2.5.4 5 μL compound working solution (100 μM) were added into ‘incubation’ plates (T60 and NCF60) containing microsomes and mix 3 times thoroughly. 2.5.5. For the NCF60 plate, 50 uL of buffer were added and were mixed 3 times thoroughly. Start timing; plate was incubated at 37° C. for 60 min while shaking. 2.5.6. In ‘Quenching’ plate TO, 180 μL quenching solution were added and 6 μL NAPDH cofactor were added. Ensured the plate was chilled to prevent evaporation. 2.5.7. For the T60 plate, were mixed 3 times thoroughly, and immediately removed 54 μL mixture for the 0-min time point to ‘Quenching’ plate. Then 44 μL NAPDH cofactor were added to incubation plate (T60). Start timing; plate were incubated at 37° C. for 60 min while shaking.
2.5.8. At 5, 10, 20, 30, and 60 min, 180 μL quenching solution were added to ‘Quenching’ plates, mix once, and were serially transferred 60 μL sample from T60 plate per time point to ‘Quenching’ plates.
2.5.9. For NCF60: were mixed once, and 60 μL sample were transferred from the NCF60 incubation to ‘Quenching’ plate containing quenching solution at the 60-min time point.
2.5.10. All sampling plates were shaken for 10 min, then centrifuged at 4000 rpm for 20 minutes at 4° C. 2.5.11. 80 μL supernatant were transferred into 240 μL HPLC water, and were mixed by plate shaker for 10 min. 2.5.12. Each bioanalysis plate were sealed and shaken for 10 minutes prior to LC-MS/MS analysis.
3.1. The equation of first order kinetics were used to calculate T1/2 and Intrinsic clearance (CLint mic) in (μL/min/mg).
Equation of first order kinetic.

[2] = biological target: T1, TNIK kinase [amino acid sequence (1-367), Invitrogen] (Homo sapiens, UniProt Q9UKE5); test: TNIK kinase inhibition assay (Z-lyte FRET-peptide); format: biochemical; conditions: 0.625 nM TNIK kinase, 2 μM Ser/Thr 7 peptide, 64 μM ATP, one hour at room temperature
T1 construct: purchased Invitrogen
T1 sequence (Q9UKE5 1-367): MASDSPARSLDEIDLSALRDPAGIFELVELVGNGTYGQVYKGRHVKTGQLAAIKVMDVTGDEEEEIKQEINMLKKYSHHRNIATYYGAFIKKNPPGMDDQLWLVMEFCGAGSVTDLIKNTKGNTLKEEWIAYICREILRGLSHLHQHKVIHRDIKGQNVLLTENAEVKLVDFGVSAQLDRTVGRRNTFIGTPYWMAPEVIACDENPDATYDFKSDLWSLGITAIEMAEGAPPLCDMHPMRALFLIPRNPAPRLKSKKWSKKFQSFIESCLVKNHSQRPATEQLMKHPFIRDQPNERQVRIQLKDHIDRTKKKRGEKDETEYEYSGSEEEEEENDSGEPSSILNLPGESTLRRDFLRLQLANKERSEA

SMILES	Human Liver Microsome (μM/min/mg) [1]	IC50 [2]
CC(C)n1cnc(-c2ccc(F)cc2)c1-c1nc(C(=O)Nc2ccc(N3CCN(C)CC3)cn2)c[nH]1 [Compound 21, 5′-(4-fluorophenyl)-3′-isopropyl-N-(5-(4-methylpiperazin-1-yl)pyridin-2-yl)-1H,3′H-[2,4′-biimidazole]-4-carboxamide]	++ (10-100 μM/min/mg as ++)	0.001 to 0.012 µM
CC(C)n1cnc(-c2ccc(F)cc2)c1-c1nc(C(=O)Nc2ccc(N3CC4CC(C3)N4C)cc2)c[nH]1 [Compound 23, 5′-(4-fluorophenyl)-3′-isopropyl-N-(4-(6-methyl-3,6-diazabicyclo[3.1.1]heptan-3-yl)phenyl)-1H,3′H-[2,4′-biimidazole]-4-carboxamide]	++ (10-100 μM/min/mg as ++)	0.001 to 0.012 µM
CC(C)n1cnc(-c2ccc(F)cc2)c1-c1nc(C(=O)Nc2ccc(N3C[C@H]4CC[C@@H](C3)N4C)cn2)c[nH]1 [Compound 24, 5′-(4-fluorophenyl)-3′-isopropyl-N-(5-((1R,5S)-8-methyl-3,8-diazabicyclo[3.2.1]octan-3-yl)pyridin-2-yl)-1H,3′H-[2,4′-biimidazole]-4-carboxamide]	++ (10-100 μM/min/mg as ++)	0.001 to 0.012 µM
CN1CCN(c2ccc(NC(=O)c3c[nH]c(-c4c(-c5ccc(F)cc5)ncn4C4CCC4)n3)cc2)CC1 [Compound 26, 3′-cyclobutyl-5′-(4-fluorophenyl)-N-(4-(4-methylpiperazin-1-yl)phenyl)-1H,3′H-[2,4′-biimidazole]-4-carboxamide]	++ (10-100 μM/min/mg as ++)	0.012 to 0.15 µM
CC(C)n1cnc(-c2ccc(F)cc2)c1-c1nc(C(=O)Nc2ccc(N3CCN(C)CC3)cc2F)co1 [Compound 28, N-(2-fluoro-4-(4-methylpiperazin-1-yl)phenyl)-2-(4-(4-fluorophenyl)-1-isopropyl-1H-imidazol-5-yl)oxazole-4-carboxamide]	+ (>100 μM/min/mg as +)	0.001 to 0.012 µM
CC(C)n1cnc(-c2ccc(F)cc2)c1-c1nc(C(=O)Nc2ccc(C3CN(C)C3)cn2)cs1 [Compound 30, 2-(4-(4-fluorophenyl)-1-isopropyl-1H-imidazol-5-yl)-N-(5-(1-methylazetidin-3-yl)pyridin-2-yl)thiazole-4-carboxamide]	++ (10-100 μM/min/mg as ++)	0.001 to 0.012 µM
CC(C)c1noc(-c2ccc(F)cc2)c1-c1nc(C(=O)Nc2ccc(C3COC3)cc2F)cs1 [Compound 31, N-(2-fluoro-4-(oxetan-3-yl)phenyl)-2-(5-(4-fluorophenyl)-3-isopropylisoxazol-4-yl)thiazole-4-carboxamide]	++ (10-100 μM/min/mg as ++)	0.012 to 0.15 µM
CC(C)n1cnc(-c2ccc(F)cc2)c1-c1nc(C(=O)Nc2ccc(N3C[C@H]4CC[C@@H](C3)N4C)cn2)co1 [Compound 40, 2-(4-(4-fluorophenyl)-1-isopropyl-1H-imidazol-5-yl)-N-(5-((1R,5S)-8-methyl-3,8-diazabicyclo[3.2.1]octan-3-yl)pyridin-2-yl)oxazole-4-carboxamide]	+ (>100 μM/min/mg as +)	0.001 to 0.012 µM
CC(C)n1cnc(-c2ccc(F)cc2)c1-c1nc(C(=O)Nc2ccc(N3C[C@H]4CC[C@@H](C3)N4C)cn2)cs1 [Compound 41, 2-(4-(4-fluorophenyl)-1-isopropyl-1H-imidazol-5-yl)-N-(5-((1R,5S)-8-methyl-3,8-diazabicyclo[3.2.1]octan-3-yl)pyridin-2-yl)thiazole-4-carboxamide]	++ (10-100 μM/min/mg as ++)	0.001 to 0.012 µM
CN1CCN(c2ccc(NC(=O)c3csc(-c4c(-c5ccc(F)cc5)ncn4C4CC4)n3)nc2)CC1 [Compound 42, 2-(1-cyclopropyl-4-(4-fluorophenyl)-1H-imidazol-5-yl)-N-(5-(4-methylpiperazin-1-yl)pyridin-2-yl)thiazole-4-carboxamide]	++ (10-100 μM/min/mg as ++)	0.001 to 0.012 µM
CC(C)n1cnc(-c2ccc(F)cc2)c1-c1nc(C(=O)Nc2ccc3c(n2)CN(C)CC3)cs1 [Compound 43, 2-(4-(4-fluorophenyl)-1-isopropyl-1H-imidazol-5-yl)-N-(7-methyl-5,6,7,8-tetrahydro-1,7-naphthyridin-2-yl)thiazole-4-carboxamide]	+ (>100 μM/min/mg as +)	0.001 to 0.012 µM
CC(C)n1cnc(-c2ccc(F)cc2)c1-c1nc(C(=O)Nc2ccc(N3CC4CC(C3)N4C)cn2)cs1 [Compound 44, 2-(4-(4-fluorophenyl)-1-isopropyl-1H-imidazol-5-yl)-N-(5-(6-methyl-3,6-diazabicyclo[3.1.1]heptan-3-yl)pyridin-2-yl)thiazole-4-carboxamide]	++ (10-100 μM/min/mg as ++)	0.001 to 0.012 µM
CN1C2CC1CN(c1ccc(NC(=O)c3csc(-c4c(-c5ccc(F)cc5)ncn4C4CC4)n3)nc1)C2 [Compound 45, 2-(1-cyclopropyl-4-(4-fluorophenyl)-1H-imidazol-5-yl)-N-(5-(6-methyl-3,6-diazabicyclo[3.1.1]heptan-3-yl)pyridin-2-yl)thiazole-4-carboxamide]	++ (10-100 μM/min/mg as ++)	0.001 to 0.012 µM
CN1[C@@H]2CC[C@H]1CN(c1ccc(NC(=O)c3csc(-c4c(-c5ccc(F)cc5)ncn4C4COC4)n3)nc1)C2 [Compound 51, 2-(4-(4-fluorophenyl)-1-(oxetan-3-yl)-1H-imidazol-5-yl)-N-(5-((1R,5S)-8-methyl-3,8-diazabicyclo[3.2.1]octan-3-yl)pyridin-2-yl)thiazole-4-carboxamide]	++ (10-100 μM/min/mg as ++)	0.001 to 0.012 µM
CC(C)n1cnc(-c2ccc(F)cc2)c1-c1nc(C(=O)Nc2ccc(C3CCOCC3)cn2)c[nH]1 [Compound 53, 5′-(4-fluorophenyl)-3′-isopropyl-N-(5-(tetrahydro-2H-pyran-4-yl)pyridin-2-yl)-1H,3′H-[2,4′-biimidazole]-4-carboxamide]	++ (10-100 μM/min/mg as ++)	0.001 to 0.012 µM
CC(C)n1cnc(-c2ccc(F)cc2)c1-c1nc(C(=O)Nc2ccc(C3COC3)cn2)c[nH]1 [Compound 54, 5′-(4-fluorophenyl)-3′-isopropyl-N-(5-(oxetan-3-yl)pyridin-2-yl)-1H,3′H-[2,4′-biimidazole]-4-carboxamide]	++ (10-100 μM/min/mg as ++)	0.001 to 0.012 µM
CC(C)n1cnc(-c2ccc(F)cc2)c1-c1nc(C(=O)Nc2ccc(C3COC3)cc2F)c[nH]1 [Compound 55, N-(2-fluoro-4-(oxetan-3-yl)phenyl)-5′-(4-fluorophenyl)-3′-isopropyl-1H,3′H-[2,4′-biimidazole]-4-carboxamide]	++ (10-100 μM/min/mg as ++)	0.001 to 0.012 µM
CC(C)n1cnc(-c2ccc(F)cc2)c1-c1nc(C(=O)Nc2ccc3c(c2)CN(C)CC3)cs1 [Compound 56, 2-(4-(4-fluorophenyl)-1-isopropyl-1H-imidazol-5-yl)-N-(2-methyl-1,2,3,4-tetrahydroisoquinolin-7-yl)thiazole-4-carboxamide]	+ (>100 μM/min/mg as +)	0.001 to 0.012 µM
CC(C)n1cnc(-c2ccc(F)cc2)c1-c1nc(C(=O)Nc2ccc(C3COC3)cn2)cs1 [Compound 57, 2-(4-(4-fluorophenyl)-1-isopropyl-1H-imidazol-5-yl)-N-(5-(oxetan-3-yl)pyridin-2-yl)thiazole-4-carboxamide]	+ (>100 μM/min/mg as +)	0.001 to 0.012 µM
CC(C)n1cnc(-c2ccc(F)cc2)c1-c1nc(C(=O)Nc2ccc(C3CN(C)C3)cc2F)cs1 [Compound 58, N-(2-fluoro-4-(1-methylazetidin-3-yl)phenyl)-2-(4-(4-fluorophenyl)-1-isopropyl-1H-imidazol-5-yl)thiazole-4-carboxamide]	++ (10-100 μM/min/mg as ++)	0.001 to 0.012 µM
